Consider 51 compounds from patent US11472808B2, “Substituted pyrrolo[1,2-c]pyrimidines as hepatitis B antiviral agents” (Enanta Pharmaceuticals, Inc., priority 2019, dated 2022).

Where only a bound is given, the exact number is not on record here.

The subject of this assay is HBV. Kind of assay: HepAD38 anti-HBV assay: reduction of viral product accumulation (virion DNA qPCR, HBsAg/HBeAg ELISA). In kind it is cell-based. Particulars: Hepatitis B virus, 120 h; HepAD38 cells; concentration reducing viral product accumulation by 50% relative to no drug controls; harvest five days after compound addition; read-out: HepAD38 EC50. Here is the method:
Methods: HepAD38 cells are maintained as previously reported (Ladner et al, Antimicrob. Agents Chemother. 1997, […], 1715). Briefly, cells are passaged upon attaining confluency in DMEM/F12 media in the presence of 10% FBS, Penn/Strep, 250 μg/mL G418, and 1 μg/ml tetracycline. Novel compounds are screened by first washing cells three times with PBS to remove tetracycline, and plating in 96 well plates at 35,000 cells/well. Compounds dissolved in DMSO are then diluted 1:200 into wells containing cells. Five days after compound addition, material is harvested for analysis. For an extended 8 day analysis, cells are plated and treated as described above, but media and compound are refreshed on d2 and d5 post initial treatment.
On harvest day, virion DNA is obtained by lysing with Sidestep Lysis and Stabilization Buffer and then quantified via quantitative real time PCR. Commercially available ELISA kits are used to quantitate the viral proteins HBsAg (Alpco) or HbeAg (US Biological) by following the manufacturer's recommended protocol after diluting samples to match the linear range of their respective assays. Irrespective of readout, compound concentrations that reduce viral product accumulation in the cell lysates or supernatants by 50% relative to no drug controls (EC50) are reported; EC50 ranges are as follows: A<0.1 μM; B 0.1-0.4 μM; C>0.4 μM.
(In qPCR the cycle at which signal appears reflects the starting amount.)
Usually EC50 stands for the concentration giving half of the maximal effect. As for `C=CS(=O)(=O)N([C@H]1CC2=C(c3ccn(C(F)F)n3)[C@H](c3ccc(F)cc3Cl)N=C(c3nccs3)N2C1)S(=O)(=O)C=C` [Example 51], the EC50 was > 400 nM. Consider `CNCCS(=O)(=O)N[C@H]1CC2=C(c3ccn(C(F)F)n3)[C@H](c3ccc(F)cc3Cl)N=C(c3nccs3)N2C1` [Example 52], for which the EC50 was < 100 nM. For the compound `CN(C)CCS(=O)(=O)N[C@H]1CC2=C(c3ccn(C(F)F)n3)[C@H](c3ccc(F)cc3Cl)N=C(c3nccs3)N2C1` [Example 53], the concentration giving a half-maximal response (EC50) is < 100 nM. As for `O=S(=O)(CCN1CCCC1)N[C@H]1CC2=C(c3ccn(C(F)F)n3)[C@H](c3ccc(F)cc3Cl)N=C(c3nccs3)N2C1` [Example 54], the figure is 100 to 400 nM; as for `O=S(=O)(CCN1CCCCC1)N[C@H]1CC2=C(c3ccn(C(F)F)n3)[C@H](c3ccc(F)cc3Cl)N=C(c3nccs3)N2C1` [Example 55], 100 to 400 nM; as for `O=S(=O)(CCN1CCOCC1)N[C@H]1CC2=C(c3ccn(C(F)F)n3)[C@H](c3ccc(F)cc3Cl)N=C(c3nccs3)N2C1` [Example 56], 100 to 400 nM.

As to `O=S(=O)(CCN1CCC(O)CC1)N[C@H]1CC2=C(c3ccn(C(F)F)n3)[C@H](c3ccc(F)cc3Cl)N=C(c3nccs3)N2C1` [Example 57], the EC50 was < 100 nM. As for `CCOC(=O)C1CCN(CCS(=O)(=O)N[C@H]2CC3=C(c4ccn(C(F)F)n4)[C@H](c4ccc(F)cc4Cl)N=C(c4nccs4)N3C2)CC1` [Example 58], the EC50 lay within 100 to 400 nM.

As for `O=C(O)C1CCN(CCS(=O)(=O)N[C@H]2CC3=C(c4ccn(C(F)F)n4)[C@H](c4ccc(F)cc4Cl)N=C(c4nccs4)N3C2)CC1` [Example 59], the EC50 is 100 to 400 nM. Turning to `COC(=O)C1CCCN1CCS(=O)(=O)N[C@H]1CC2=C(c3ccn(C(F)F)n3)[C@H](c3ccc(F)cc3Cl)N=C(c3nccs3)N2C1` (stereo partly drawn) [Example 60], the EC50 was > 400 nM. `COC(=O)CC1CCN(CCS(=O)(=O)N[C@H]2CC3=C(c4ccn(C(F)F)n4)[C@H](c4ccc(F)cc4Cl)N=C(c4nccs4)N3C2)CC1` [Example 61]: the EC50 is < 100 nM. As for `COC(=O)CC1CCN(C(=O)CC2CCN(CCS(=O)(=O)N[C@H]3CC4=C(c5ccn(C(F)F)n5)[C@H](c5ccc(F)cc5Cl)N=C(c5nccs5)N4C3)CC2)CC1` [Example 62], the figure is < 100 nM; as for `O=C(O)CC1CCN(CCS(=O)(=O)N[C@H]2CC3=C(c4ccn(C(F)F)n4)[C@H](c4ccc(F)cc4Cl)N=C(c4nccs4)N3C2)CC1` [Example 63], > 400 nM. Turning to `O=C(O)CC1CCN(C(=O)CC2CCN(CCS(=O)(=O)N[C@H]3CC4=C(c5ccn(C(F)F)n5)[C@H](c5ccc(F)cc5Cl)N=C(c5nccs5)N4C3)CC2)CC1` [Example 64], the EC50 was > 400 nM. As for `O=C(O)C1CCCN1CCS(=O)(=O)N[C@H]1CC2=C(c3ccn(C(F)F)n3)[C@H](c3ccc(F)cc3Cl)N=C(c3nccs3)N2C1` (stereo partly drawn) [Example 65], the figure is > 400 nM; as for `COC(=O)C1CCCN(CCS(=O)(=O)N[C@H]2CC3=C(c4ccn(C(F)F)n4)[C@H](c4ccc(F)cc4Cl)N=C(c4nccs4)N3C2)C1` (stereo partly drawn) [Example 66], > 400 nM; as for `COC(=O)C1CCCN(C(=O)C2CCCN(CCS(=O)(=O)N[C@H]3CC4=C(c5ccn(C(F)F)n5)[C@H](c5ccc(F)cc5Cl)N=C(c5nccs5)N4C3)C2)C1` (stereo partly drawn) [Example 67], > 400 nM. With `O=C(O)C1CCCN(CCS(=O)(=O)N[C@H]2CC3=C(c4ccn(C(F)F)n4)[C@H](c4ccc(F)cc4Cl)N=C(c4nccs4)N3C2)C1` (stereo partly drawn) [Example 68], the EC50 was > 400 nM. On to `O=C(O)C1CCCN(C(=O)C2CCCN(CCS(=O)(=O)N[C@H]3CC4=C(c5ccn(C(F)F)n5)[C@H](c5ccc(F)cc5Cl)N=C(c5nccs5)N4C3)C2)C1` (stereo partly drawn) [Example 69], for which the EC50 was > 400 nM. As to `CC(C)CCS(=O)(=O)N[C@H]1CC2=C(c3ccn(C(F)F)n3)[C@H](c3ccc(F)cc3Cl)N=C(c3nccs3)N2C1` [Example 71], the EC50 lay within 100 to 400 nM. On to `CCNS(=O)(=O)N[C@H]1CC2=C(c3ccn(C(F)F)n3)[C@H](c3ccc(F)cc3Cl)N=C(c3nccs3)N2C1` [Example 76], for which the EC50 is < 100 nM.

Regarding `CCCNS(=O)(=O)N[C@H]1CC2=C(c3ccn(C(F)F)n3)[C@H](c3ccc(F)cc3Cl)N=C(c3nccs3)N2C1` [Example 77], the EC50 is < 100 nM. For the compound `O=S(=O)(Nc1ccccc1)N[C@H]1CC2=C(c3ccn(C(F)F)n3)[C@H](c3ccc(F)cc3Cl)N=C(c3nccs3)N2C1` [Example 82], the EC50 was 100 to 400 nM. As for `O=S(=O)(Nc1ccncc1)N[C@H]1CC2=C(c3ccn(C(F)F)n3)[C@H](c3ccc(F)cc3Cl)N=C(c3nccs3)N2C1` [Example 83], the figure is 100 to 400 nM; as for `CCOC(=O)C1CCN(S(=O)(=O)N[C@H]2CC3=C(c4ccn(C(F)F)n4)[C@H](c4ccc(F)cc4Cl)N=C(c4nccs4)N3C2)CC1` [Example 87], < 100 nM; as for `O=C(O)C1CCN(S(=O)(=O)N[C@H]2CC3=C(c4ccn(C(F)F)n4)[C@H](c4ccc(F)cc4Cl)N=C(c4nccs4)N3C2)CC1` [Example 90], < 100 nM.

`O=S(=O)(N[C@H]1CC2=C(c3ccn(C(F)F)n3)[C@H](c3ccc(F)cc3Cl)N=C(c3nccs3)N2C1)N1C[C@H](O)[C@@H](O)C1` [Example 101]: the EC50 is < 100 nM. As for `O=S(=O)(N[C@H]1CC2=C(c3ccn(C(F)F)n3)[C@H](c3ccc(F)cc3Cl)N=C(c3nccs3)N2C1)N1C[C@@H](O)[C@H](O)C1` [Example 102], the figure is < 100 nM; as for `O=S(=O)(N[C@H]1CC2=C(c3ccn(C(F)F)n3)[C@H](c3ccc(F)cc3Cl)N=C(c3nccs3)N2C1)N1C[C@@H](O)[C@@H](O)C1` [Example 103], < 100 nM; as for `O=S(=O)(N[C@H]1CC2=C(c3ccn(C(F)F)n3)[C@H](c3ccc(F)cc3Cl)N=C(c3nccs3)N2C1)[C@H]1CC[C@](O)(c2ccccn2)CC1` [Example 104], < 100 nM. With `O=S(=O)(N[C@H]1CC2=C(c3ccn(C(F)F)n3)[C@H](c3ccc(F)cc3Cl)N=C(c3nccs3)N2C1)[C@H]1CC[C@](O)(c2cccnc2)CC1` [Example 105], the EC50 is < 100 nM.

On to `COC[C@@]1(O)CC2=C(c3ccn(C(F)F)n3)[C@H](c3ccc(F)cc3Cl)N=C(c3nccs3)N2C1` [Example 106], for which the EC50 is > 400 nM.

For the compound `COC[C@]1(O)CC2=C(c3ccn(C(F)F)n3)[C@H](c3ccc(F)cc3Cl)N=C(c3nccs3)N2C1` [Example 107], the EC50 is > 400 nM. As for `C=CCOC[C@]1(O)CC2=C(c3ccn(C(F)F)n3)[C@H](c3ccc(F)cc3Cl)N=C(c3nccs3)N2C1` [Example 108], the EC50 lay within 100 to 400 nM. As for `OCCOC[C@]1(O)CC2=C(c3ccn(C(F)F)n3)[C@H](c3ccc(F)cc3Cl)N=C(c3nccs3)N2C1` [Example 110], the EC50 was 100 to 400 nM. `OCCOC[C@@]1(O)CC2=C(c3ccn(C(F)F)n3)[C@H](c3ccc(F)cc3Cl)N=C(c3nccs3)N2C1` [Example 111]: the EC50 was > 400 nM. For the compound `COCCOC[C@@]1(O)CC2=C(c3ccn(C(F)F)n3)[C@H](c3ccc(F)cc3Cl)N=C(c3nccs3)N2C1` [Example 112], the EC50 was > 400 nM. As to `COCCOC[C@]1(O)CC2=C(c3ccn(C(F)F)n3)[C@H](c3ccc(F)cc3Cl)N=C(c3nccs3)N2C1` [Example 113], the EC50 was > 400 nM. Take `C#CCNC[C@@]1(O)CC2=C(c3ccn(C(F)F)n3)[C@H](c3ccc(F)cc3Cl)N=C(c3nccs3)N2C1` [Example 114]: the EC50 was > 400 nM. Take `C#CCNC[C@]1(O)CC2=C(c3ccn(C(F)F)n3)[C@H](c3ccc(F)cc3Cl)N=C(c3nccs3)N2C1` [Example 115]: the EC50 is > 400 nM. Turning to `C=CCNC[C@@]1(O)CC2=C(c3ccn(C(F)F)n3)[C@H](c3ccc(F)cc3Cl)N=C(c3nccs3)N2C1` [Example 116], the EC50 is > 400 nM. For `C=CCNC[C@]1(O)CC2=C(c3ccn(C(F)F)n3)[C@H](c3ccc(F)cc3Cl)N=C(c3nccs3)N2C1` [Example 117], the EC50 was > 400 nM. Regarding `O[C@]1(CNCc2ccccc2)CC2=C(c3ccn(C(F)F)n3)[C@H](c3ccc(F)cc3Cl)N=C(c3nccs3)N2C1` [Example 118], the EC50 was > 400 nM. As for `O[C@@]1(CNCc2ccccc2)CC2=C(c3ccn(C(F)F)n3)[C@H](c3ccc(F)cc3Cl)N=C(c3nccs3)N2C1` [Example 119], the figure is > 400 nM; as for `O[C@]1(Cn2cccn2)CC2=C(c3ccn(C(F)F)n3)[C@H](c3ccc(F)cc3Cl)N=C(c3nccs3)N2C1` [Example 120], > 400 nM. As for `O[C@@]1(Cn2cccn2)CC2=C(c3ccn(C(F)F)n3)[C@H](c3ccc(F)cc3Cl)N=C(c3nccs3)N2C1` [Example 121], the figure is > 400 nM; as for `ONC[C@@]1(O)CC2=C(c3ccn(C(F)F)n3)[C@H](c3ccc(F)cc3Cl)N=C(c3nccs3)N2C1` [Example 122], > 400 nM. As for `ONC[C@]1(O)CC2=C(c3ccn(C(F)F)n3)[C@H](c3ccc(F)cc3Cl)N=C(c3nccs3)N2C1` [Example 123], the figure is > 400 nM.

As to `O[C@@]1(CCl)CC2=C(c3ccn(C(F)F)n3)[C@H](c3ccc(F)cc3Cl)N=C(c3nccs3)N2C1` [Example 124], the EC50 is < 100 nM.

Consider `O[C@]1(CCl)CC2=C(c3ccn(C(F)F)n3)[C@H](c3ccc(F)cc3Cl)N=C(c3nccs3)N2C1` [Example 125], for which the half-maximal effective concentration (EC50) is < 100 nM.

On to `CONC[C@@]1(O)CC2=C(c3ccn(C(F)F)n3)[C@H](c3ccc(F)cc3Cl)N=C(c3nccs3)N2C1` [Example 126], for which the EC50 was > 400 nM.
